This data set can be described thus: Water sorption/desorption by dynamic vapor sorption (DVS). Format: physicochemical. The following applies: water sorption/desorption chamber. The text has this: Table 4 provides a summary of other solid state data collected for the monohydrate salts of compound 1 described in Examples 33-39. The temperature at which the salts dehydrated per DSC is shown in column 2. The percent weight loss as determined by TGA is shown in column 3; the weight loss approximated theoretical weight loss.

Regarding `O.O.O=C(O)CC(O)C(=O)O.O=c1[nH]cnc2c(CN3CC(O)C(CO)C3)c[nH]c12.O=c1[nH]cnc2c(CN3CC(O)C(CO)C3)c[nH]c12` [Hemi-L-malate], the “Weight gain from 0 to 20% RH from DVS” value amounted to 0.87 and the “Weight gain from 0 to 90% RH from DVS” value was 5.68.
The like results for `O.O.O=C(O)CCC(=O)O.O=c1[nH]cnc2c(CN3CC(O)C(CO)C3)c[nH]c12.O=c1[nH]cnc2c(CN3CC(O)C(CO)C3)c[nH]c12` (stereo not shown) [Hemisuccinate] were, in that order, 5.44 and 6.04.
